This is an account of results in PMC12308784, “Organometallic Half-Sandwich Complexes of 1,10-Phenanthroline Derivatives with Improved Solubility, Albumin-Binding, and Nanoformulation Potential Targeting Drug Resistance in Cancer” (Inorganic Chemistry, 2025).

Like-named read-outs stand apart in the source and are kept apart here. Marks after values point to notes of the source that are not given here.

The test system of test [1] is MDA-MB-231, MCF-7 and T-47D breast cancer cell lines. In words: PrestoBlue cytotoxicity, range over the three breast cancer lines. The class given is cell-based. As to conditions: MDA-MB-231, MCF-7, T-47D; 72 h. As to the method:
The PHEN-derived ligands (DCP, BP) (together with PHEN for comparison) and the isolated complexes ([RuCym(DCP)-Cl]-Cl, [RhCp*(DCP)-Cl]-Cl, [RuCym(BP)-Cl]-Cl, [RhCp*(BP)-Cl]-Cl) were tested against the estrogen receptor (ER) negative MDA-MB-231, and the ER positive MCF-7 and T-47D breast cancer cell lines (Table , and Figure a for easier comparison).
(§1) MDA-MB-231 breast adenocarcinoma and MCF-7 and T-47D invasive breast carcinomas were purchased from the Developmental Therapeutic Program of the National Cancer Institute (NIH, USA), and they were cultured in RPMI medium (Thermo Fisher). MES–SA and MES–SA/Dx5 uterine sarcoma cell lines were purchased from American Type Culture Collection and were kept in DMEM (Thermo Fisher). MES–SA/B1 was created by the transfection of the human MDR1 gene in MES–SA, and MES–SA mCherry, MES–SA/B1 mOrange, and MES–SA/Dx5 eGFP were engineered to stably express the respective fluorescent proteins, as described previously. Culture media were supplemented with 10% fetal bovine serum, 2 mM L-glutamine, 100 units/mL penicillin, and 100 μg/mL streptomycin (Thermo Fisher). Cells were kept at 37 °C under 5% CO2 and were negative for mycoplasma infection.
(§2) Cytotoxicity of the nonfluorescent cancer cells (MDA-MB-231, MCF-7, T-47D) were assessed with PrestoBlue cell viability reagent (Thermo Fisher). Briefly, 2500 cells/well were seeded on 384-well plates, and then the next day drugs were added. After 72 h incubation, PrestoBlue was added in a 10% final concentration, and after an hour of additional incubation, plates were measured with a PerkinElmer EnSpire plate reader at 555 nm/585 nm excitation/emission wavelengths. Fluorescent cells (MES-SA mCherry, MES-SA/B1 mOrange, MES-SA/Dx5 eGFP) were admixed before seeding on 384-well plates at 800 cells/well density each, thus altogether 2400 cells/well. Drugs were added the following day, and the intensity of the fluorescent proteins were measured after 144 h incubation at the respective fluorescent channels (excitation/emission: eGFP: 485 nm/510 nm; mCherry: 585 nm/610 nm; mOrange: 545 nm/567 nm). pIC50 values were calculated by a custom program written by Judit Sessler in C#. IC50 values and standard deviation were calculated from average pIC50 values from at least 3 independent measurements.

The subject of test [2] is MES-SA/B1-mOrange. In words: fluorescent triple coculture cytotoxicity assay. The test is classed as cell-based, human. The note with it: 384-well plate; for SR (MES-SA/B1): selectivity ratio versus parental MES-SA.
From the text: (§3) Cytotoxicity of the compounds were further tested also in an in vitro MDR model system, consisting of an MES-SA uterine sarcoma cell line, and its P-gp (ABCB1) overexpressing variants MES-SA/B1, that was genetically engineered to express P-gp, and MES-SA/Dx5, which acquired a P-gp-mediated MDR phenotype due to selection in doxorubicin. , The expression of different fluorescent proteins in each line (mCherry, mOrange, or eGFP) allowed coculturing of these three cell lines, providing more relevant data compared to monocultures, as the interaction between parental and resistant phenotypes is reflected in cytotoxicity.
(§4) Cytotoxicity of nanoformulated [RhCp*(BP)-Cl]-Cl with cross-linked HSA and HTP carriers was tested against the previously introduced triple coculture of fluorescent MES-SA cells with a slight difference. Namely, the media containing the dissolved products were removed from the wells, and fresh media was added prior to the measurement as the presence of cross-linked HSA and HTP formulations interfered with the fluorescence of the cells.
as §1
as §2, with “Fluorescent cells (MES-SA mCherry, MES-SA/B1 mOrange, MES-SA/Dx5 eGFP) were admixed before seeding on 384-well plates at 800 cells/well density each, thus altogether 2400 cells/well.” left out, “measurements. Since the IC50 values were obtained through nonlinear regression fitting of the viability vs. log(concentration) data, the resulting confidence intervals are inherently asymmetric (see pIC50 values and their corresponding SD in Tables S5 and S6).” for “measurements.”

Test [3] concerns MES-SA mCherry. In words: fluorescent triple coculture cytotoxicity assay. The test is classed as cell-based, human. The note with it: 384-well plate.
From the text: as §3, §4, §1
as §2, with “Fluorescent cells (MES-SA mCherry, MES-SA/B1 mOrange, MES-SA/Dx5 eGFP) were admixed before seeding on 384-well plates at 800 cells/well density each, thus altogether 2400 cells/well.” left out, “measurements. Since the IC50 values were obtained through nonlinear regression fitting of the viability vs. log(concentration) data, the resulting confidence intervals are inherently asymmetric (see pIC50 values and their corresponding SD in Tables S5 and S6).” for “measurements.”

Test [4] deals with MES-SA/Dx5-eGFP. In words: fluorescent triple coculture cytotoxicity assay. As to conditions: 384-well plate; for SR (MES-SA/Dx5): selectivity ratio versus parental MES-SA. The class given is cell-based, human.
From the text: as §3, §4, §1
as §2, with “Fluorescent cells (MES-SA mCherry, MES-SA/B1 mOrange, MES-SA/Dx5 eGFP) were admixed before seeding on 384-well plates at 800 cells/well density each, thus altogether 2400 cells/well.” left out, “measurements. Since the IC50 values were obtained through nonlinear regression fitting of the viability vs. log(concentration) data, the resulting confidence intervals are inherently asymmetric (see pIC50 values and their corresponding SD in Tables S5 and S6).” for “measurements.”

The test system of test [5] is MDA-MB-231. In words: PrestoBlue cytotoxicity assay. The class given is cell-based. As for the experimental part: as §1
as §2, with “measurements. Since the IC50 values were obtained through nonlinear regression fitting of the viability vs. log(concentration) data, the resulting confidence intervals are inherently asymmetric (see pIC50 values and their corresponding SD in Tables S5 and S6).” for “measurements.”

The subject of test [6] is T47D. In words: PrestoBlue cytotoxicity assay. The test is classed as cell-based. As for the experimental part: as §1
as §2, with “measurements. Since the IC50 values were obtained through nonlinear regression fitting of the viability vs. log(concentration) data, the resulting confidence intervals are inherently asymmetric (see pIC50 values and their corresponding SD in Tables S5 and S6).” for “measurements.”

Test [7] deals with MCF-7. In words: PrestoBlue cytotoxicity assay. The class given is cell-based. As for the experimental part:
as §1
as §2, with “measurements. Since the IC50 values were obtained through nonlinear regression fitting of the viability vs. log(concentration) data, the resulting confidence intervals are inherently asymmetric (see pIC50 values and their corresponding SD in Tables S5 and S6).” for “measurements.”

The target in test [8] is T1, human serum albumin (HSA), Trp-214 in Sudlow’s site I (Homo sapiens, UniProt P02768).
T1 construct: purchased Sigma-Aldrich A8763
T1 sequence (P02768 25-609): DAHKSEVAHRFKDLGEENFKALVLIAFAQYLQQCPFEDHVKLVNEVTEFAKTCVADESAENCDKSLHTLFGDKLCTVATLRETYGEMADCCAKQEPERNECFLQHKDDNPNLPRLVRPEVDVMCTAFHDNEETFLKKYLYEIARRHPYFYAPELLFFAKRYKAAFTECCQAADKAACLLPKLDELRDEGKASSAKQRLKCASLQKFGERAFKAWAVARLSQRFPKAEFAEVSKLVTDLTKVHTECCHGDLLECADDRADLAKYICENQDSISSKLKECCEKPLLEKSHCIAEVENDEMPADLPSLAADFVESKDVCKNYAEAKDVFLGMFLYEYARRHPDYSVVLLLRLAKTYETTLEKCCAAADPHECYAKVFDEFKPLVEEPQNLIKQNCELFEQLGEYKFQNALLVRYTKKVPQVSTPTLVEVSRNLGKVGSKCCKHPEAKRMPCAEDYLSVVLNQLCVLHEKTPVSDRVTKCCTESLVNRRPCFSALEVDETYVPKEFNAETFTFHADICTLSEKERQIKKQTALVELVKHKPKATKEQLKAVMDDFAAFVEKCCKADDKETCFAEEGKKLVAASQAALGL
The note with it: cited from earlier work; for logK Q′ (quenching constant): organometallic precursors, PBS’, t = 25 °C.

Test [9] has as its target T2, HSA Sudlow’s site I (IIA subdomain) (Homo sapiens, UniProt P02768).
T2 construct: purchased Sigma-Aldrich A8763
As to conditions: organometallic precursors; PBS’; t = 25 °C; ref footnote a (ref 56); cited from earlier work.

The mark [10] stands for this setting: Homo sapiens, MES-SA/B1-mOrange, coculture, 144 h, read-out: IC50.
[11] abbreviates: Homo sapiens, Mes-Sa/B1 mOrange, Table S6, read-out: pIC50 (mean) (converted).
Where [12] appears, read: Homo sapiens, MES-SA, 144 h, MES-SA mCherry, coculture, 144 h, read-out: IC50.
Setting [13] is: Homo sapiens, MES-SA, Mes-Sa mCherry, Table S6, read-out: pIC50 (mean) (converted).
Setting [14] is: MES-SA mCherry, coculture, 144 h, read-out: IC50.
Setting [15] is: Homo sapiens, MES-SA/Dx5-eGFP, coculture, 144 h, read-out: IC50.
Where [16] appears, read: Homo sapiens, Mes-Sa/Dx5 eGFP, Table S6, read-out: pIC50 (mean) (converted).
[17] abbreviates: Homo sapiens, 72 h, 384-well plate, read-out: IC50.
Setting [18] is: Homo sapiens, Table S5, read-out: pIC50 (mean) (converted).
[19] abbreviates: 72 h, 384-well plate, read-out: IC50.

T2 sequence (P02768 25-609): as above

Turning to `c1cnc2c(c1)ccc1cccnc12` [PHEN, 1,10-phenanthroline], the IC50 in [1] is 3.2 to 8.6 µM; in test [2] (setting [10]) it was 1.39 µM; in [2] (setting [11]), 1.38 µM; in test [3] (setting [12]), 3 µM; in test [3] (setting [13]), 2.95 µM; in test [3] (setting [14]), 2.95 µM. Moreover, the IC50 in [4] (setting [15]) was 0.41 µM; in [4] (setting [16]), 0.417 µM; in test [5] (setting [17]), 3.2 µM; in [5] (setting [18]), 3.16 µM; in test [6] (setting [17]), 5.47 µM; in test [6] (setting [18]), 5.5 µM. Moreover, the IC50 in [7] (Homo sapiens, MCF7, 72 h, 384-well plate, read-out: IC50) was 8.57 µM; in [7] (Homo sapiens, MCF7, Table S5, read-out: pIC50 (mean) (converted)), 8.51 µM. Besides, the “SR (MES-SA/B1)” value in test [2] is listed as 2.1. The “SR (MES-SA/Dx5)” value in test [4] is reported as 7.1.
For the molecule `[Ru].c1cnc2c(c1)ccc1cccnc12.c1cnc2c(c1)ccc1cccnc12.c1cnc2c(c1)ccc1cccnc12` [[Ru(PHEN)3]^2+], the “interaction with HSA” value in [8] (ref number not given) is “negligible interaction”.
Consider `N.N.[Cl][Pt][Cl]` [cisplatin], for which the IC50 is 3.2 to 7 µM in [1]; 1.71 µM in test [2] (MES-SA/B1-mOrange, coculture, 144 h, read-out: IC50); 1.49 µM in [3] (setting [14]); 4.28 µM in test [4] (MES-SA/Dx5-eGFP, coculture, 144 h, read-out: IC50); 3.16 µM in [5] (setting [19]); 6.98 µM in [6] (setting [19]). Moreover, the IC50 in [7] (setting [19]) was 4.78 µM. Also, the “pIC50 (mean)” value is listed as 5.77 in test [2] (Mes-Sa/B1 mOrange, Table S6); 5.83 in test [3] (Mes-Sa mCherry, Table S6); 5.37 in test [4] (Mes-Sa/Dx5 eGFP, Table S6); 5.50 in test [5] (Table S5); 5.16 in [6] (Table S5); 5.32 in [7] (Table S5). Also, the “SR (MES-SA/B1)” value in test [2] worked out at 0.9. Moreover, the “SR (MES-SA/Dx5)” value in [4] is 0.3.
As for `COc1cc([C@@H]2c3cc4c(cc3[C@@H](O[C@@H]3O[C@@H]5CO[C@@H](C)O[C@H]5[C@H](O)[C@H]3O)[C@H]3COC(=O)[C@H]23)OCO4)cc(OC)c1O` [etoposide], the IC50 in test [2] (setting [10]) was 1.19 µM; in [2] (setting [11]), 1.17 µM; in [3] (setting [12]), 0.2 µM; in test [3] (setting [13]), 0.2 µM; in test [4] (setting [15]) it was 2.08 µM; in [4] (setting [16]), 2.09 µM. Moreover, in test [2] (coculture), the “resistance of MES-SA/B1 versus parental line” value amounted to 6 fold. Besides, in test [2], the “SR (MES-SA/B1)” value is recorded as 0.2. Further, the “resistance of MES-SA/Dx5 versus parental line” value in [4] (coculture) is on record as 10 fold. Also, the “SR (MES-SA/Dx5)” value in [4] is listed as 0.1.
For the molecule [Rh(η^5-C5Me5)Cl2]2 [RhCp*precursor], the “logK WF′ (WF displacement constant)” value in test [9] is listed as 6.1 ^a. For the same molecule, the “logK Q′ (quenching constant)” value in test [8] is on record as 5.8 ^a; in test [8] (listed as precursor RhCp*) it was 5.8.
Regarding “[Ru(η^6-p-cymene)Cl2]2 [RuCym precursor]”, the “logK WF′ (WF displacement constant)” value in test [9] was 5.9 ^a. For the same molecule, the “logK Q′ (quenching constant)” value in test [8] was 5.7 ^a.
